The subject of data set [1] is the trypanosome. The settings on record: cited from earlier work.
The subject of data set [2] is binding of mAb T54E10 to the n-butanol species. Description: ELISA inhibition-binding study, mAb T54E10 on n-butanol fraction GPI species. Also on record: species or system mouse. The procedure: The GPI species of the n-butanol fraction were coated on microtiter wells at a coat concentration which corresponds to 10^6 tachyzoites per well. […] Ethanolamine (10 mM) itself was able to inhibit the binding of mAb T54E10 by 50%. All other compounds tested were not able to inhibit the binding of the monoclonal antibody. However, the binding of human anti-Toxoplasma antibodies was not affected by any of the compounds tested.
FIG. 6: Inhibition ELISA: Inhibition ELISA using glycolipids contained in the butanol phase as antigen and mAb T54E10

This is an account of results in patent publication US20020058288A1, “TOXOPLASMA GONDII GLYCOCONJUGATES” (priority 1995, published 2002).

With `CCCOCCCCCCCCCC(=O)O` [10-(propoxy) decanoic acid], in data set [1], the “Toxicity to the trypanosome” value was “selective toxicity”. For the molecule `NCCO` [Ethanolamine], the “Inhibition of the binding of mAb T54E10” value in data set [2] (10 mM) worked out at 50%. For `NCCOP(=O)(O)O` [ethanolamine-phosphate], the “Inhibition of binding of mAb T54E10 to n-butanol species” value in data set [2] (coat corresponding to 10^6 tachyzoites per well, FIG. 6) is listed as “inhibited”.
